# Reference: the OligoGym collection
# After the bases stand the sugars from the 5' end (letter, count) and the backbone: PS all phosphorothioate, else s phosphorothioate and o phosphodiester by linkage. Methylation of C is not given here. e = 2'-O-(2-methoxyethyl) (MOE); k = constrained ethyl (cEt); d = 2'-deoxy (DNA); m = 2'-O-methyl
# Target: HSD17B13
# Details: ASO, HepaRG
Sequence,target mRNA inhibition (1 µM) [%],also measured
"CAATAGTACTATAGTA (sugars k3 d10 k3, PS)",14,
"CAATCCCAACCAAACT (sugars k3 d10 k3, PS)",49,
"CAATTTATCATACCAC (sugars k3 d10 k3, PS)",37,
"CAATTTATTTGCTGGT (sugars k3 d10 k3, PS)",31,
"CACAAGCACACTGTAA (sugars k3 d10 k3, PS)",2,
"CACAAGTAAGGTAAAG (sugars kkdddddddddkekek, PS)",38,
"CACACTAATGAATCAT (sugars k3 d10 k3, PS)",30,
"CACATAGCTAACTCAG (sugars k3 d10 k3, PS)",42,
"CACATATGTGAAGAGC (sugars k3 d10 k3, PS)",71,
"CACGATTGTTACATCA (sugars k3 d10 k3, PS)",37,
"CACTAAAGGTTTCTGT (sugars k3 d10 k3, PS)",56,
"CACTAATATTGAGGCA (sugars k3 d10 k3, PS)",31,
"CACTAATCTCAGTACT (sugars k3 d10 k3, PS)",48,
"CACTAATGAATCATGA (sugars k3 d10 k3, PS)",25,
"CACTCAGCTGCAGTTT (sugars k3 d10 k3, PS)",13,
"CACTGATTTAGTTGGT (sugars k3 d10 k3, PS)",66,
"CACTGCCAGATTGCAC (sugars k3 d10 k3, PS)",38,
"CACTGGATGGATTTCT (sugars k3 d10 k3, PS)",72,
"CACTGTGACGATGTGG (sugars k3 d10 k3, PS)",10,
"CAGAAATTCACCTTGA (sugars k3 d10 k3, PS)",28,
"CAGAAGTATGTGAACT (sugars k3 d10 k3, PS)",22,
"CAGAATAGAGTTGCAC (sugars k3 d10 k3, PS)",50,
"CAGACTAAGGGACCAG (sugars k3 d10 k3, PS)",75,target mRNA inhibition (0.02 µM): 23%; target mRNA inhibition (0.078 µM): 24%; target mRNA inhibition (0.313 µM): 63%; target mRNA inhibition (1.25 µM): 76%; target mRNA inhibition (5 µM): 89%
"CAGACTTCTTACGACT (sugars k3 d10 k3, PS)",33,

Sequence,target mRNA inhibition (1 µM) [%],also measured
"CAGAGACATGAGGTTT (sugars k3 d9 k3 e1, PS)",45,
"CAGATTATTATGTGAT (sugars k3 d9 k3 e1, PS)",38,
"CAGATTATTATGTGAT (sugars k3 d10 k3, PS)",51,
"CAGATTATTATGTGAT (sugars kkdddddddddkekek, PS)",31,
"CAGAUTGGAATGCTAC (sugars k3 d1 m1 d8 k3, PS)",70,target mRNA inhibition (0.02 µM): 7%; target mRNA inhibition (0.078 µM): 25%; target mRNA inhibition (0.313 µM): 42%; target mRNA inhibition (1.25 µM): 56%; target mRNA inhibition (5 µM): 82%
"CAGCAAAGTTTGGGCA (sugars k3 d10 k3, PS)",37,
"CAGCATATTCATTTGG (sugars k3 d10 k3, PS)",49,
"CAGCATTGATTCGAAA (sugars k3 d1 m1 d8 k3, PS)",37,
"CAGCATTGATTCGAAA (sugars k3 d9 k3 e1, PS)",53,
"CAGCATTGATTCGAAA (sugars k3 d10 k3, PS)",69,target mRNA inhibition (0.02 µM): 2%; target mRNA inhibition (0.078 µM): 0%; target mRNA inhibition (0.313 µM): 26%; target mRNA inhibition (1.25 µM): 56%; target mRNA inhibition (5 µM): 65%
"CAGGCTGTAAGAGTCA (sugars k3 d10 k3, PS)",56,
"CAGTAGATTTGGTAGA (sugars k3 d10 k3, PS)",49,
"CAGTCCTTGTGTAGTC (sugars k3 d10 k3, PS)",70,target mRNA inhibition (0.02 µM): 18%; target mRNA inhibition (0.078 µM): 21%; target mRNA inhibition (0.313 µM): 49%; target mRNA inhibition (1.25 µM): 79%; target mRNA inhibition (5 µM): 95%
"CAGTCTTAAACCTTCC (sugars kkdddddddddkekek, PS)",51,
"CAGTTTTCCTCATGAT (sugars k3 d9 k3 e1, PS)",65,
"CATAAAGCTGGATTGT (sugars k3 d10 k3, PS)",0,
"CATAACTACTTCAGTT (sugars k3 d10 k3, PS)",3,
"CATAACTTCATAGTGG (sugars k3 d10 k3, PS)",31,
"CATAACTTCATAGTGG (sugars kkdddddddddkekek, PS)",15,
"CATAATAATAGCTCTA (sugars k3 d10 k3, PS)",41,
"CATACCCATTCTAACT (sugars k3 d10 k3, PS)",6,
"CATATTCCCTGATGAT (sugars k3 d10 k3, PS)",14,
"CATCCCCTAAGTTATT (sugars k3 d10 k3, PS)",24,
"CATCTACATGGATCCA (sugars k3 d10 k3, PS)",63,

Sequence,target mRNA inhibition (1 µM) [%],also measured
"CATCTCTGGGACCAAG (sugars kkdddddddddkekek, PS)",44,
"CATGAAGATTAGTTAA (sugars k3 d10 k3, PS)",11,
"CATTAAGCTTAGTATA (sugars k3 d10 k3, PS)",19,
"CATTAATGCCACCCTA (sugars k3 d10 k3, PS)",8,
"CATTATAAGCTAACTA (sugars k3 d10 k3, PS)",39,
"CATTATTCACCACGAT (sugars k3 d10 k3, PS)",33,
"CATTCGGCTAGGCGCG (sugars k3 d10 k3, PS)",46,
"CCAAAAATCAGCCACT (sugars k3 d10 k3, PS)",0,
"CCAAAAATGTCCTAGG (sugars k3 d10 k3, PS)",38,
"CCAACGCAACAGTTTA (sugars k3 d10 k3, PS)",77,
"CCAACTATGTAATAGG (sugars k3 d10 k3, PS)",68,
"CCAAGGCCTGAAGTTC (sugars k3 d10 k3, PS)",20,
"CCAAGGCTTATGAAGT (sugars k3 d10 k3, PS)",27,
"CCAATATAATCCAAAG (sugars k3 d10 k3, PS)",28,
"CCAATATGGGATGAGG (sugars k3 d10 k3, PS)",60,
"CCAATTATGAATCTGC (sugars k3 d10 k3, PS)",61,
"CCAATTTAAATCAGGC (sugars k3 d10 k3, PS)",73,target mRNA inhibition (0.02 µM): 0%; target mRNA inhibition (0.078 µM): 17%; target mRNA inhibition (0.313 µM): 52%; target mRNA inhibition (1.25 µM): 72%; target mRNA inhibition (5 µM): 89%
"CCAGAAAGTTCATTCG (sugars k3 d10 k3, PS)",81,target mRNA inhibition (0.02 µM): 38%; target mRNA inhibition (0.078 µM): 51%; target mRNA inhibition (0.313 µM): 64%; target mRNA inhibition (1.25 µM): 79%; target mRNA inhibition (5 µM): 91%
"CCAGGTTGAGATAAAG (sugars k3 d1 m1 d8 k3, PS)",49,
"CCATAAAGCTGGATTG (sugars k3 d10 k3, PS)",40,
"CCATAATCTGTGATTA (sugars k3 d10 k3, PS)",9,
"CCATCTATCAGACTTC (sugars kkdddddddddkekek, PS)",52,
